Assay results reported in ChEMBL document CHEMBL3808339, “Identification, synthesis and evaluation of SARS-CoV and MERS-CoV 3C-like protease inhibitors” (Bioorg Med Chem, 2016).

The compounds below were run against Replicase polyprotein 1ab (Severe acute respiratory syndrome-related coronavirus, UniProt P0C6X7).
For CC(C)(C)c1ccc(N2N=C(c3ccccc3)/C(=C/c3ccc(-c4cc(Cl)ccc4C(=O)O)o3)C2=O)cc1, the IC50 was 5.8 µM.
With O=C(O)c1ccc(Cl)cc1-c1ccc(/C=C2\C(=O)N(c3ccc(F)cc3)N=C2c2ccccc2)o1 the IC50 was 20.2 µM.
Compound O=C(O)c1cccc(N2N=C(c3ccccc3)/C(=C/c3ccc(-c4cc(Cl)ccc4C(=O)O)o3)C2=O)c1 has an IC50 of 44.7 µM.
COc1ccc(N2N=C(c3ccccc3)/C(=C/c3ccc(-c4ccccc4C(=O)O)o3)C2=O)cc1 showed an IC50 of 30.7 µM.
Work on CC1=NN(c2cccc(C(=O)O)c2)C(=O)/C1=C\c1ccc(-c2ccccc2)o1 yielded an IC50 of over 50 µM.
Compound N#Cc1ccc(N2N=C(c3ccccc3)/C(=C/c3ccc(-c4ccccc4C(=O)O)o3)C2=O)cc1 has an IC50 of 18.7 µM.
CC(C)c1ccc(N2N=C(c3ccccc3)/C(=C/c3ccc(-c4ccccc4C(=O)O)o3)C2=O)cc1 was tested, and the IC50 was 11.7 µM.
Compound CC(C)(C)c1ccc(N2N=C(c3ccccc3)/C(=C/c3ccc(-c4ccccc4C(=O)O)o3)C2=O)cc1 has an IC50 of 8.6 µM.
O=C(O)c1cccc(N2N=C(c3ccccc3)/C(=C/c3ccco3)C2=O)c1 was tested, and the IC50 was over 50 µM.
With O=C(O)c1cccc(N2N=C(c3ccccc3)/C(=C/c3ccc(-c4ccccc4)o3)C2=O)c1 the IC50 was 6.4 µM.
Compound CC1=NN(c2ccccc2)C(=O)/C1=C\c1ccc(-c2cc(Cl)ccc2C(=O)O)o1 has an IC50 of over 50 µM.
For O=C1/C(=C\c2ccc(-c3ccccc3)o2)C(c2ccccc2)=NN1c1ccccc1, the IC50 was over 50 µM.
O=C(O)c1cccc(N2N=C(C(F)(F)F)/C(=C/c3ccc(-c4cc(Cl)ccc4C(=O)O)o3)C2=O)c1 was tested, and the IC50 was over 50 µM.
O=C(O)c1ccccc1-c1ccc(/C=C2\C(=O)N(c3ccc(F)cc3)N=C2c2ccccc2)o1 gave an IC50 of 37.5 µM.
For O=C(O)c1ccc(Cl)cc1-c1ccc(/C=C2\C(=O)N(c3ccccc3)N=C2c2ccccc2)o1, the IC50 was 16.4 µM.
O=C(O)c1ccccc1-c1ccc(/C=C2\C(=O)N(c3ccccc3)N=C2c2ccccc2)o1 was tested, and the IC50 was 41.2 µM.
In the case of CC1=NN(c2cccc(C(=O)O)c2)C(=O)/C1=C\c1ccc(-c2cc(Cl)ccc2C(=O)O)o1, the IC50 is reported as over 50 µM.

What follows are compounds tested against Neuraminidase (Influenza A virus, UniProt B4URF0) (assay: Inhibition of Influenza A virus H5N1 neuraminidase preincubated for 10 mins followed by addition of 2'-(4-methylumbelliferyl)-alpha-D-N-acetylneuraminic acid as fluorogenic substrate measured after 15 mins by fluorescence analysis).
Sequence of Neuraminidase (B4URF0 whole entry): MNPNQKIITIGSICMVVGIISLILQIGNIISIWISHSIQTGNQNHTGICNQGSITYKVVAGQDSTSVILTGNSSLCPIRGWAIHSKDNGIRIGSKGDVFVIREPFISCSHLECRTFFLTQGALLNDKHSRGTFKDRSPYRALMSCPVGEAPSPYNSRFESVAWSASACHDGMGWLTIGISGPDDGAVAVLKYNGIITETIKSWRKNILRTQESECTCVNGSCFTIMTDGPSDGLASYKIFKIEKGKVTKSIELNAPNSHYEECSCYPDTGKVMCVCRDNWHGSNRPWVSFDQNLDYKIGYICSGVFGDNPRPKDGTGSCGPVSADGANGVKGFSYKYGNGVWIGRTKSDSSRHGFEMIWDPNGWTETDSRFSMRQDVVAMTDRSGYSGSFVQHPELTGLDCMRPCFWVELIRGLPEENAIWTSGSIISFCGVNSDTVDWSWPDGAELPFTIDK
Compound O=C(O)c1ccc(Cl)cc1-c1ccc(/C=C2\C(=O)N(c3ccc(F)cc3)N=C2c2ccccc2)o1 has an IC50 of 2.9 µM.
With O=C(O)c1ccc(Cl)cc1-c1ccc(/C=C2\C(=O)N(c3ccccc3)N=C2c2ccccc2)o1 the IC50 was 2.8 µM.
Compound O=C(O)c1ccccc1-c1ccc(/C=C2\C(=O)N(c3ccccc3)N=C2c2ccccc2)o1 has an IC50 of 13.7 µM.
